#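 1) Cells in 96-well plates. 2) Compound, 48 h, 5 concentrations. 3) Linear interpolation between surrounding doses. 4) Unreached endpoint = highest concentration. TGI marks complete inhibition of growth.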
# Columns and labels:
# Assay in all cases: NCI-60 cell line screen, 48 h
# HCC-2998 colon = tested on: HCC-2998 colon
# HOP-92 NSCLC = tested on: HOP-92 NSCLC
# SR leukemia = tested on: SR leukemia
# M14 melanoma = tested on: M14 melanoma
# KM12 colon = tested on: KM12 colon
# NCI-H522 lung = tested on: NCI-H522 lung
# CAKI-1 renal = tested on: CAKI-1 renal
# OVCAR-4 ovarian = tested on: OVCAR-4 ovarian
# ACHN renal = tested on: ACHN renal
# OVCAR-8 ovarian = tested on: OVCAR-8 ovarian
# SF-295 CNS = tested on: SF-295 CNS
# HCT-116 colon = tested on: HCT-116 colon
# SNB-75 CNS = tested on: SNB-75 CNS
# HCT-15 colon = tested on: HCT-15 colon
# NCI/ADR-RES ovarian = tested on: NCI/ADR-RES ovarian
# OVCAR-5 ovarian = tested on: OVCAR-5 ovarian
# A549 NSCLC = tested on: A549 NSCLC
# HL-60(TB) leukemia = tested on: HL-60(TB) leukemia
# SN12C renal = tested on: SN12C renal
# RXF 393 renal = tested on: RXF 393 renal
Compound,TGI (HCC-2998 colon) [µM],TGI (HOP-92 NSCLC) [µM],TGI (SR leukemia) [µM],TGI (M14 melanoma) [µM],TGI (KM12 colon) [µM],TGI (NCI-H522 lung) [µM],TGI (CAKI-1 renal) [µM],TGI (OVCAR-4 ovarian) [µM],TGI (ACHN renal) [µM],TGI (OVCAR-8 ovarian) [µM],TGI (SF-295 CNS) [µM],TGI (HCT-116 colon) [µM],TGI (SNB-75 CNS) [µM],TGI (HCT-15 colon) [µM],TGI (NCI/ADR-RES ovarian) [µM],TGI (OVCAR-5 ovarian) [µM],TGI (A549 NSCLC) [µM],TGI (HL-60(TB) leukemia) [µM],TGI (SN12C renal) [µM],TGI (RXF 393 renal) [µM]
CCOC(=O)C1=NN(c2ccc(Cl)cc2)C2=CC(C)=NN(C)C(=S)N21,> 100,> 100,> 100,> 100,> 100,46.9,50.4,> 100,> 100,> 100,> 100,> 100,94.7,> 100,> 100,> 100,> 100,> 100,> 100,47.3
COc1ccc(/C=N/n2cnc3c(c2=O)S/C(=C2/SC(=S)N(c4ccc(C)cc4)C2=O)N3c2ccccc2)cc1,> 100,> 100,> 100,> 100,> 100,> 100,> 10,94.1,> 100,> 100,38.1,> 100,> 100,> 100,–,> 100,> 100,> 100,> 100,35.8
